In ChEMBL document CHEMBL1135069, “The discovery of acylated beta-amino acids as potent and orally bioavailable VLA-4 antagonists” (Bioorg Med Chem Lett, 2002):

Key:
[1] = Bioavailability in rat (dose 1 mg/kg i.v. and 2 mg/kg p.o.); conditions: in vivo, po, F
Integrin alpha-4/beta-1 [2] = target: T1, Integrin alpha-4/beta-1 (Homo sapiens, UniProt P05556+P13612); experiment: Inhibitory activity against alpha-4 beta-1 receptor (VLA-4) in human RPMI-8866 cells using [125I]-VCAM-Ig ligand; assay type: cell-based
T1 sequence (P05556 whole entry): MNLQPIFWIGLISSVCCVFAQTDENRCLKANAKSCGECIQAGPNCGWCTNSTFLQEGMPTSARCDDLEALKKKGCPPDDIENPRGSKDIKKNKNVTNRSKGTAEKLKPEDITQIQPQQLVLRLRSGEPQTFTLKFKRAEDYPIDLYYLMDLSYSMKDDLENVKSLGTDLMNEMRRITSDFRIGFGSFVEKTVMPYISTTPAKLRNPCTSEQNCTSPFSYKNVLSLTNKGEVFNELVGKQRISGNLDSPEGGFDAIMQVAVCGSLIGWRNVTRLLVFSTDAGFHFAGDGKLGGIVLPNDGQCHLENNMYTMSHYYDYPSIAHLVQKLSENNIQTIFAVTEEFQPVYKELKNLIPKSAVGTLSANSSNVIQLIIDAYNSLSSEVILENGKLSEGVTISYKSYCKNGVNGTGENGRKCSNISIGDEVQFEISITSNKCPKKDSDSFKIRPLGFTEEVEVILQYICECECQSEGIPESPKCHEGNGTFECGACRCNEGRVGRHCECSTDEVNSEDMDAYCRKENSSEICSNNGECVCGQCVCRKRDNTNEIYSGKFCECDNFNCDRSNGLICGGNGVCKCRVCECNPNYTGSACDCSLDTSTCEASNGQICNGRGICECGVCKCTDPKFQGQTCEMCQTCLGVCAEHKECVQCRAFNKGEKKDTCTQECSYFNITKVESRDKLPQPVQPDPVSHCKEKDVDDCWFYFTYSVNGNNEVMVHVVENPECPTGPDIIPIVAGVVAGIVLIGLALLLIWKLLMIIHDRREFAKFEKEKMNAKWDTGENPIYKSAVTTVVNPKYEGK
T1 sequence (P13612 whole entry): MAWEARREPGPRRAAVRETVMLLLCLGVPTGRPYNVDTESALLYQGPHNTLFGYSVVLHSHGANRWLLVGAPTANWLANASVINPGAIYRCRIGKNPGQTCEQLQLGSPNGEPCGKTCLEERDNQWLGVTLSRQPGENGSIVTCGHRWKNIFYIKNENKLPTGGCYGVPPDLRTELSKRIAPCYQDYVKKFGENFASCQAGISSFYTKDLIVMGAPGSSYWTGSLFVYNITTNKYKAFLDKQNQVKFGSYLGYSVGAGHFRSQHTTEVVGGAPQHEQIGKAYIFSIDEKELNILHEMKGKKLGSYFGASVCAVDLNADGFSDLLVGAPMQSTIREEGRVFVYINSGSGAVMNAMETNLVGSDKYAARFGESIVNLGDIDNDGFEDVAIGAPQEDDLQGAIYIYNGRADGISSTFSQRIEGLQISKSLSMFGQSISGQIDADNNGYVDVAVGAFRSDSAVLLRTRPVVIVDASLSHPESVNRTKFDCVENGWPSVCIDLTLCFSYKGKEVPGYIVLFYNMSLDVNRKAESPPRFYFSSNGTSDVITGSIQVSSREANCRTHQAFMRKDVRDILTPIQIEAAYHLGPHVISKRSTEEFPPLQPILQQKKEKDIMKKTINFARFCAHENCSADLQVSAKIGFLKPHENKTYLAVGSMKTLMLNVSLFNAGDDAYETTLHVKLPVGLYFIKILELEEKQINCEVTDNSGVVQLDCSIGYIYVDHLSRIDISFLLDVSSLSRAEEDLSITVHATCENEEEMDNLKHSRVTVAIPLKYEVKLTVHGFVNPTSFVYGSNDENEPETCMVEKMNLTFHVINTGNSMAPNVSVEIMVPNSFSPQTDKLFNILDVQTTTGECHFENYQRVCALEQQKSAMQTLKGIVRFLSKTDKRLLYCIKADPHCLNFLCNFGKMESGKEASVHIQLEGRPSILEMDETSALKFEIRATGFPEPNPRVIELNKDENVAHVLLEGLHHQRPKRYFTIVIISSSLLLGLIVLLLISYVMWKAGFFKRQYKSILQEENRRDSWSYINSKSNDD

in vivo = conditions: Sprague-Dawley, rat, plasma, iv, 1 mg/kg
Rattus norvegicus = organism: Rattus norvegicus; conditions: in vivo, iv, 1 mg/kg
Integrin alpha-4/beta-1 [3] = target: T1, Integrin alpha-4/beta-1; experiment: Inhibition of [125I]VCAM-Ig binding to alpha4-beta1 (VLA-4) of human RPMI-8866 cells; assay type: cell-based

O=C(O)C[C@@H](NC(=O)[C@@H]1CCN1S(=O)(=O)c1cc(Cl)cc(Cl)c1)c1ccc(OCC(F)(F)F)cc1
bioavailability [1]: 38% | IC50 (Integrin alpha-4/beta-1 [2]): 1.4 nM | clearance (in vivo): 43 mL/min/kg

COc1ccc([C@](C)(CC(=O)O)NC(=O)[C@@H]2CCN2S(=O)(=O)c2cc(Cl)cc(Cl)c2)cc1
bioavailability [1]: 19% | IC50 (Integrin alpha-4/beta-1 [2]): 26 nM | clearance (in vivo): 46 mL/min/kg

O=C(O)C[C@@H](NC(=O)[C@@H]1CCN1S(=O)(=O)c1cc(Cl)cc(Cl)c1)c1ccc(Cl)c(F)c1
IC50 (Integrin alpha-4/beta-1 [2]): 11 nM

COc1ccc([C@@H](CC(=O)O)NC(=O)[C@]2(C)CCN2S(=O)(=O)c2cc(Cl)cc(Cl)c2)cc1
IC50 (Integrin alpha-4/beta-1 [2]): 1.5 nM | clearance (in vivo): 7 mL/min/kg

CC(C)(C)Oc1ccc([C@@H](CC(=O)O)NC(=O)[C@@H]2CCCN2S(=O)(=O)c2cc(Cl)cc(Cl)c2)cc1
IC50 (Integrin alpha-4/beta-1 [2]): 0.53 nM

O=C(O)C[C@@H](NC(=O)[C@@H]1CCN1S(=O)(=O)c1cc(Cl)cc(Cl)c1)c1ccc(OCF)cc1
IC50 (Integrin alpha-4/beta-1 [2]): 0.72 nM

CS(=O)(=O)c1ccc([C@@H](CC(=O)O)NC(=O)[C@@H]2CCCN2S(=O)(=O)c2cc(Cl)cc(Cl)c2)cc1
IC50 (Integrin alpha-4/beta-1 [2]): 0.55 nM | clearance (in vivo): 92 mL/min/kg

O=C(O)C[C@@H](NC(=O)[C@@H]1CCN1S(=O)(=O)c1cc(Cl)cc(Cl)c1)c1ccc(OC(F)F)cc1
IC50 (Integrin alpha-4/beta-1 [2]): 1.3 nM

CC(C)[C@@H](CC(=O)O)NC(=O)[C@@H]1CCCN1S(=O)(=O)c1cc(Cl)cc(Cl)c1
IC50 (Integrin alpha-4/beta-1 [2]): 8.9 nM

COc1ccc([C@@H](CC(=O)O)NC(=O)[C@@H]2CCN2S(=O)(=O)c2cc(Cl)cc(Cl)c2)cc1 (stereo in doubt; 6g)
IC50 (Integrin alpha-4/beta-1 [2]): 0.39 nM | clearance (Rattus norvegicus): 39 mL/min/kg

O=C(O)C[C@H](Cc1ccccc1)NC(=O)[C@@H]1CCCN1S(=O)(=O)c1cc(Cl)cc(Cl)c1
IC50 (Integrin alpha-4/beta-1 [2]): 22 nM

COc1ccc([C@@H](CC(=O)O)NC(=O)[C@@H]2CCN2S(=O)(=O)c2cc(Cl)cc(Cl)c2)cn1
IC50 (Integrin alpha-4/beta-1 [2]): 3 nM | clearance (in vivo): 55 mL/min/kg

Cc1ccccc1NC(=O)Nc1ccc(CN[C@@H](CC(C)C)C(=O)N[C@@H](CC(=O)O)c2ccc3c(c2)OCO3)cc1
IC50 (Integrin alpha-4/beta-1 [2]): 3 nM

O=C(O)C[C@@H](NC(=O)[C@@H]1CCN1S(=O)(=O)c1cc(Cl)cc(Cl)c1)c1ccc(F)cc1
IC50 (Integrin alpha-4/beta-1 [2]): 3.2 nM

O=C(O)C[C@@H](NC(=O)[C@@H]1CCN1S(=O)(=O)c1cc(Cl)cc(Cl)c1)c1ccccc1
IC50 (Integrin alpha-4/beta-1 [3]): 2.4 nM | clearance (in vivo): 27 mL/min/kg

O=C(O)C[C@@H](NC(=O)[C@@H]1CCCN1S(=O)(=O)c1cc(Cl)cc(Cl)c1)c1ccc(OC(F)(F)F)cc1
IC50 (Integrin alpha-4/beta-1 [2]): 2.6 nM | clearance (in vivo): 22 mL/min/kg

O=C(O)C[C@@H](NC(=O)[C@@H]1CCN1S(=O)(=O)c1cc(Cl)cc(Cl)c1)c1ccc(OC2CCCC2)cc1
IC50 (Integrin alpha-4/beta-1 [2]): 0.5 nM | clearance (in vivo): 165 mL/min/kg

CCOc1ccc([C@@H](CC(=O)O)NC(=O)[C@@H]2CCCN2S(=O)(=O)c2cc(Cl)cc(Cl)c2)cc1
IC50 (Integrin alpha-4/beta-1 [2]): 0.27 nM | clearance (in vivo): 40 mL/min/kg

O=C(O)CCNC(=O)[C@@H]1CCCN1S(=O)(=O)c1cc(Cl)cc(Cl)c1
IC50 (Integrin alpha-4/beta-1 [2]): 1510 nM

CC(C)[C@H](CC(=O)O)NC(=O)[C@@H]1CCCN1S(=O)(=O)c1cc(Cl)cc(Cl)c1
IC50 (Integrin alpha-4/beta-1 [2]): 362 nM

O=C(O)C[C@@H](NC(=O)[C@@H]1CCN1S(=O)(=O)c1cc(Cl)cc(Cl)c1)c1ccc(Br)cc1
IC50 (Integrin alpha-4/beta-1 [2]): 2.1 nM

O=C(O)C[C@@H](NC(=O)[C@@H]1CCN1S(=O)(=O)c1cc(Cl)cc(Cl)c1)c1ccc(Oc2ccccc2)cc1
IC50 (Integrin alpha-4/beta-1 [2]): 3.1 nM

O=C(O)C[C@H](NC(=O)[C@@H]1CCCN1S(=O)(=O)c1cc(Cl)cc(Cl)c1)c1ccccc1
IC50 (Integrin alpha-4/beta-1 [2]): 544 nM

O=C(O)C[C@@H](NC(=O)[C@@H]1CCCN1S(=O)(=O)c1cc(Cl)cc(Cl)c1)c1ccc(OC2CC2)cc1
IC50 (Integrin alpha-4/beta-1 [2]): 0.85 nM | clearance (in vivo): 26 mL/min/kg

O=C(O)C[C@@H](NC(=O)[C@@H]1CCCN1S(=O)(=O)c1cc(Cl)cc(Cl)c1)c1ccc(O)cc1
IC50 (Integrin alpha-4/beta-1 [2]): 0.74 nM | clearance (in vivo): 22 mL/min/kg

COc1ccc([C@@H](CC(=O)O)NC(=O)[C@@H]2CCN2S(=O)(=O)c2cc(Cl)cc(Cl)c2)cc1 (stereo in doubt; 7g)
IC50 (Integrin alpha-4/beta-1 [2]): 0.49 nM | clearance (Rattus norvegicus): 17 mL/min/kg

O=C(O)C[C@@H](NC(=O)[C@@H]1CCN1S(=O)(=O)c1cc(Cl)cc(Cl)c1)c1ccc(OC2CC2)cc1
IC50 (Integrin alpha-4/beta-1 [2]): 0.31 nM | clearance (in vivo): 70 mL/min/kg

O=C(O)[C@H](Cc1ccccc1)NC(=O)[C@@H]1CCCN1S(=O)(=O)c1cc(Cl)cc(Cl)c1
IC50 (Integrin alpha-4/beta-1 [2]): 1.4 nM

C/C=C/[C@@H](CC(=O)O)NC(=O)[C@@H]1CCCN1S(=O)(=O)c1cc(Cl)cc(Cl)c1
IC50 (Integrin alpha-4/beta-1 [2]): 13 nM
